Some test systems named below: HCT-15 colon; HT29 colon; M14 melanoma; NCI-H226 lung; NCI-H522 lung; NCI/ADR-RES ovarian; OVCAR-5 ovarian; OVCAR-8 ovarian; SK-MEL-28 melanoma; SR leukemia.
What all share (assay): NCI-60 cell line screen, 48 h

Molecules are shown by their SMILES.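 Cultured in 96-well plates, cells were exposed to test compound for 48 hours across five concentrations. Here, GI50 denotes the concentration required for 50% inhibition of growth. TGI marks complete inhibition of growth.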

With `CCOC(=O)c1c(C)n2c(=O)cc(C)c3c(OC(C)=O)c(OC(C)=O)cc1c32`, the GI50 is 3.37 µM with HCT-15 colon; 10.9 µM with HT29 colon; 3.96 µM in the experiment on M14 melanoma; 10.1 µM in the experiment with NCI-H226 lung; 4.11 µM in the experiment on NCI-H522 lung; 2.69 µM in the experiment with NCI/ADR-RES ovarian. In addition, the GI50 is 11.9 µM in the experiment with OVCAR-5 ovarian, 3.91 µM in the experiment on OVCAR-8 ovarian, 4.87 µM with SK-MEL-28 melanoma and 2.78 µM in the experiment on SR leukemia. In addition, the TGI in the experiment on HCT-15 colon was 17.2 µM; in the experiment with HT29 colon it was 47.5 µM; in the experiment with M14 melanoma, 18.2 µM; in the experiment with NCI-H226 lung, 35.7 µM; in the experiment on NCI-H522 lung it was 15.1 µM; with NCI/ADR-RES ovarian, greater than 27 µM. The TGI is 42.2 µM in the experiment with OVCAR-5 ovarian, greater than 61.2 µM in the experiment on OVCAR-8 ovarian, 22.5 µM with SK-MEL-28 melanoma and greater than 32.2 µM in the experiment with SR leukemia.

Turning to `O=C(c1cccs1)c1c(C(F)(F)F)n([O-])c2ccc(F)cc2[n+]1=O`, the GI50 was 0.435 µM in the experiment with HCT-15 colon; 0.868 µM in the experiment on HT29 colon; 1.54 µM in the experiment on M14 melanoma; 1.76 µM in the experiment on NCI-H226 lung; 1.46 µM in the experiment with NCI-H522 lung; 2.36 µM in the experiment on NCI/ADR-RES ovarian. In addition, the GI50 is 1.76 µM with OVCAR-5 ovarian, 0.528 µM in the experiment with OVCAR-8 ovarian, 1.52 µM with SK-MEL-28 melanoma and 0.148 µM in the experiment on SR leukemia. In addition, the TGI was 1.64 µM in the experiment with HCT-15 colon; 2.47 µM with HT29 colon; 3 µM in the experiment on M14 melanoma; 3.39 µM in the experiment with NCI-H226 lung; 2.88 µM with NCI-H522 lung; 6.33 µM with NCI/ADR-RES ovarian. Further, the TGI in the experiment on OVCAR-5 ovarian came out at 3.21 µM; in the experiment on OVCAR-8 ovarian, 1.34 µM; with SK-MEL-28 melanoma it was 2.86 µM; in the experiment with SR leukemia it was 0.558 µM.

Regarding `COC(=O)Nc1nc2cc3c(cc2s1)OCCO3`, the GI50 in the experiment with HCT-15 colon, in the experiment on HT29 colon, in the experiment with M14 melanoma, in the experiment with NCI-H226 lung, in the experiment on NCI-H522 lung and with NCI/ADR-RES ovarian was greater than 50 µM in each case. Further, the GI50 in the experiment on OVCAR-5 ovarian, in the experiment on OVCAR-8 ovarian, with SK-MEL-28 melanoma and in the experiment with SR leukemia was greater than 50 µM in each case. For the same compound, the TGI in the experiment on HCT-15 colon, in the experiment on HT29 colon, with M14 melanoma, with NCI-H226 lung, in the experiment on NCI-H522 lung and in the experiment with NCI/ADR-RES ovarian was greater than 50 µM each time. Moreover, the TGI in the experiment on OVCAR-5 ovarian, with OVCAR-8 ovarian, in the experiment on SK-MEL-28 melanoma and with SR leukemia was greater than 50 µM throughout.

As for `CCC1CC(=O)N(SCC(N)C(=O)O)C1=O` (stereo not given), the TGI with HCT-15 colon, in the experiment on HT29 colon, in the experiment with M14 melanoma, in the experiment on NCI-H226 lung, in the experiment on NCI-H522 lung and in the experiment on NCI/ADR-RES ovarian was greater than 100 µM throughout. For the same compound, the TGI in the experiment with OVCAR-5 ovarian, with OVCAR-8 ovarian, with SK-MEL-28 melanoma and in the experiment on SR leukemia was greater than 100 µM throughout.

Turning to `CC1OC(OC2CC(O)C3(CO)C4C(O)CC5(C)C(C6=CC(=O)OC6)CCC5(O)C4CCC3(O)C2)C(O)C(O)C1O` (stereo not given), the GI50 in the experiment with HCT-15 colon is less than 0.0133 µM; in the experiment with HT29 colon it was less than 0.0147 µM; with M14 melanoma it was 0.0212 µM; in the experiment on NCI-H226 lung it was 0.0167 µM; in the experiment on NCI-H522 lung, less than 0.0147 µM; with NCI/ADR-RES ovarian, less than 0.0122 µM. Also, the GI50 with OVCAR-5 ovarian is 0.0147 µM; with OVCAR-8 ovarian it was less than 0.0199 µM; in the experiment on SK-MEL-28 melanoma, 0.0646 µM; in the experiment with SR leukemia, 0.0221 µM. The TGI was 0.024 µM with HCT-15 colon; 0.102 µM with HT29 colon; 0.0784 µM with M14 melanoma; 0.0646 µM with NCI-H226 lung; less than 0.0312 µM with NCI-H522 lung; less than 0.0152 µM with NCI/ADR-RES ovarian. The TGI is 0.0311 µM with OVCAR-5 ovarian, 0.046 µM with OVCAR-8 ovarian, 0.251 µM in the experiment on SK-MEL-28 melanoma and 0.0546 µM with SR leukemia.

`CC(=O)OC1CCC2(C)C(=CCC3C2CCC2(C)C(C(C)C(=O)O)CCC32)C1` (stereo not given): the TGI in the experiment with HCT-15 colon, with HT29 colon, with M14 melanoma, in the experiment with NCI-H226 lung, in the experiment on NCI-H522 lung and in the experiment with NCI/ADR-RES ovarian was greater than 100 µM in each case. Besides, the TGI in the experiment on OVCAR-5 ovarian, with OVCAR-8 ovarian, in the experiment on SK-MEL-28 melanoma and in the experiment on SR leukemia was greater than 100 µM throughout.

For `COC(=O)[C@H](CC(C)C)NC(=O)NC(=O)NC(=O)CI`, the GI50 was 1.66 µM with HCT-15 colon; 1.93 µM in the experiment with HT29 colon; 2.03 µM in the experiment with M14 melanoma; 2.95 µM with NCI-H226 lung; 1.67 µM with NCI-H522 lung; 25.5 µM in the experiment on NCI/ADR-RES ovarian. Further, the GI50 with OVCAR-5 ovarian is 14.3 µM; with OVCAR-8 ovarian, 5.69 µM; in the experiment with SK-MEL-28 melanoma it was 5.64 µM; in the experiment on SR leukemia it was 1.25 µM. Besides, the TGI in the experiment with HCT-15 colon amounted to 3.13 µM; in the experiment on HT29 colon, 3.59 µM; in the experiment with M14 melanoma it was 4.94 µM; in the experiment on NCI-H226 lung, 10 µM; in the experiment on NCI-H522 lung, 3.2 µM; with NCI/ADR-RES ovarian, 74.1 µM. Moreover, the TGI came out at 30 µM in the experiment with OVCAR-5 ovarian, 18.4 µM in the experiment on OVCAR-8 ovarian, 19.1 µM with SK-MEL-28 melanoma and 4.37 µM in the experiment on SR leukemia.

On to `O=c1[nH]c(SCc2c(Cl)c(Cl)c(Cl)c(Cl)c2Cl)nc(=S)[nH]1`, for which the TGI was greater than 100 µM in the experiment on HCT-15 colon; greater than 63 µM in the experiment on HT29 colon; greater than 100 µM with M14 melanoma; greater than 100 µM in the experiment on NCI-H226 lung; 34.4 µM in the experiment on NCI-H522 lung; greater than 100 µM with NCI/ADR-RES ovarian. Also, the TGI is greater than 100 µM in the experiment on OVCAR-5 ovarian, greater than 100 µM in the experiment on OVCAR-8 ovarian, 98.6 µM in the experiment with SK-MEL-28 melanoma and 0.516 µM in the experiment with SR leukemia.

Turning to `CC1(C)CC2C=C(C=O)C3(C=O)CC3(C)C2C1` (stereo not given), the TGI came out at 3.94 µM in the experiment on HCT-15 colon; 4.54 µM in the experiment with HT29 colon; 5.24 µM in the experiment on M14 melanoma; 9.18 µM in the experiment on NCI-H226 lung; 2.51 µM with NCI-H522 lung; 5.21 µM in the experiment with NCI/ADR-RES ovarian. In addition, the TGI with OVCAR-5 ovarian came to 4.14 µM; with OVCAR-8 ovarian it was 6.1 µM; in the experiment with SK-MEL-28 melanoma, 4.19 µM; in the experiment with SR leukemia, 2.45 µM.

Source of the values: PubChem BioAssay (NCI).
